Measured values: US5955463A, “Quinazoline thymidylate synthase inhibitors” (Zeneca Limited, priority 1992, dated 1999)

Columns and labels:
thymidylate synthase = molecular target: T1, thymidylate synthase (Mus musculus, UniProt P07607); assay: Test (a): in vitro inhibition of thymidylate synthase (partially purified from L1210 mouse leukaemia cells); type: biochemical
T1 construct: obtained in partially purified form from L1210 mouse leukaemia cells; endogenous in cells; host or cells: L1210 mouse leukaemia cells
T1 sequence (P07607 whole entry): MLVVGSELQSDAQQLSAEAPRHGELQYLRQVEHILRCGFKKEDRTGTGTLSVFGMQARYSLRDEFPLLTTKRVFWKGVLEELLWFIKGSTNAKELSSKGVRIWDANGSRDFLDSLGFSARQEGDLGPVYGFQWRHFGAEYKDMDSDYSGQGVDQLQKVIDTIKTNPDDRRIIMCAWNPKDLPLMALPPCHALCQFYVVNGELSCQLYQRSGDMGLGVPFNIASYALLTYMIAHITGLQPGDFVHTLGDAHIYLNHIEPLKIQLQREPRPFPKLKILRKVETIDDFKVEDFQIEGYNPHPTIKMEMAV
Text: (a) An in vitro assay which determines the ability of a test compound to inhibit the enzyme thymidylate synthase.

[1] = system: leukaemia cell line L1210; assay: Test (b): inhibition of growth of leukaemia cell line L1210 in cell culture; type: cell-based; conditions: Mus musculus
Text: (b) An assay which determines the ability of a test compound to inhibit the growth of the leukaemia cell line L1210 in cell culture.

[2] = system: human breast cancer cell line MCF-7; assay: Test (c): inhibition of growth of human breast cancer cell line MCF-7 in cell culture; type: cell-based; conditions: MCF7, MCF-7 cell culture growth
Text: (c) An assay which determines the ability of a test compound to inhibit the growth of the human breast cancer cell line MCF-7 in cell culture.

[3] = particularly liver and kidney; cited from earlier work
[4] = system: human breast, ovarian and liver cancer; conditions: clinical trials; cited from earlier work

Structure (SMILES): Cc1nc2cc(C)c(CN(C)c3ccc(C(=O)N[C@@H](CCc4nnn[nH]4)C(=O)O)c(F)c3)cc2c(=O)[nH]1 [(2S)-2-{o-fluoro-p-[N-(2,7-dimethyl-4-oxo-3,4-dihydroquinazolin-6-ylmethyl)-N-methylamino]benzamido}-4-(tetrazol-5-yl)butyric acid]
- IC50 (thymidylate synthase): ~0.002 µM
- IC50 [1]: ~0.07 µM
- IC50 [2]: ~0.04 µM

Structure (SMILES): C#CCN(Cc1ccc2nc(C)[nH]c(=O)c2c1)c1ccc(C(=O)N[C@@H](CCc2nnn[nH]2)C(=O)O)cc1 [(2S)-2-{p-[N-(2-methyl-4-oxo-3,4-dihydroquinazolin-6-ylmethyl)-N-(prop-2-ynyl)amino]benzamido}-4-(tetrazol-5-yl)butyric acid]
- IC50 (thymidylate synthase): ~0.013 µM
- IC50 [1]: ~0.12 µM
- IC50 [2]: ~0.04 µM

Structure (SMILES): C#CCN(Cc1cc2c(=O)[nH]c(C)nc2cc1C)c1ccc(C(=O)N[C@@H](CCc2nnn[nH]2)C(=O)O)c(F)c1 [(2S)-2-{o-fluoro-p-[N-(2,7-dimethyl-4-oxo-3,4-dihydroquinazolin-6-ylmethyl)-N-(prop-2-ynyl)amino]benzamido}-4-(tetrazol-5-yl)butyric acid]
- IC50 [1]: ~0.02 µM
- IC50 [2]: ~0.01 µM

Structure (SMILES): C#CCN(Cc1ccc2nc(N)[nH]c(=O)c2c1)c1ccc(C(=O)N[C@@H](CCC(=O)O)C(=O)O)cc1 [CB3717]
- symptoms of toxicity in humans [3]: shows symptoms of toxicity in humans, particularly in relation to the liver and kidney
- activity against human breast, ovarian and liver cancer [4]: promising activity against human breast, ovarian and liver cancer
